# What was measured:
# MCF-7 cells [1] = assay: Cell uptake of [^18F]1 in MCF-7 cells after 21 h pretreatment; format: cell-based, human; conditions: MCF-7 cells
# Method: (§1) The ability of [^18F]1 to bind to MDM2 expressing human tumor cells was assessed using two wild-type p53 cell lines, MCF-7 breast adenocarcinoma, and HepG2 hepatocellular carcinoma. These cell lines have significant MDM2 expression levels and have been utilized previously for assessing potential MDM2 inhibitors, including SP-141 [12, 24, 25]. […] Thus, to examine the uptake and specificity of [^18F]1 by MDM2 expressing tumor cell lines, MCF-7 and HepG2 cells were treated with 0, 1, 5, or 10 µM SP-141 for 21 h, and then assessed for [^18F]1 uptake for 1 h.
# (§2) Cell uptake studies of [^18F]1 were conducted using MCF-7 and HepG2 cell lines. Briefly, cells plated in 24-well plates (200,000/well) were treated with varying concentrations of SP-141 (1, 5, or 10 µM) or vehicle for 21 h and incubated with a fresh medium containing [^18F]1 (~18.5 kBq in 0.5 mL medium) for 1 h. Next, the incubation medium was removed, cells were rinsed with cold PBS (3 × 0.5 mL) and lysed using Cell Culture Lysis Reagent (0.25 mL, Promega Corporation, Madison, WI, USA) followed by a rinse with PBS (0.125 mL/well). For each well, the supernatant, PBS washes, and the cell lysate were measured for radioactivity in an automated gamma counter (Wallac Wizard™, Perkin Elmer, Waltham, MA, USA). Subsequently, cell lysates were analyzed for protein concentration using the Bradford assay (Bio-Rad, Hercules, CA, USA). Cell uptake for each well was normalized to its protein content and expressed as % uptake/mg protein. Results are presented as mean ± SD for three wells.
# HepG2 cells [2] = assay: Cell uptake of [^18F]1 in HepG2 cells after 21 h pretreatment; format: cell-based, human; conditions: HepG2 cells
# Method: as §1
# as §2, with “Briefly, cells plated in 24-well plates (200,000/well) were treated with varying concentrations of SP-141 (1, 5, or 10 µM) or vehicle for 21 h and incubated with a fresh medium containing [^18F]1 (~18.5 kBq in 0.5 mL medium) for 1 h.” left out
# MDM2 gene expression = conditions: AML patients, peripheral blasts, after 10 days of treatment; cited from earlier work
# MCF-7 cells [3] = test system: MCF-7 cells; design: method as in PMID 25271708, PMID 31832522; conditions: 0.5–1.0 µM for 24 h; cited from earlier work
# MCF-7 cells [4] = assay: [^18F]1 uptake with or without co-incubated 100 µM SP-141, MCF-7; format: cell-based, human; conditions: 100 µM SP-141 co-incubation, 15 min
# Method: (§3) Because MDM2 is a transcriptional target of p53, stabilization of p53 levels after MDM2 inhibition with SP-141 is expected to cause a temporary increase in MDM2 protein expression via the autoregulatory loop. Thus, we hypothesized that treatment of tumor cells with high concentrations of SP-141 for shorter periods (e.g., <4 h) might induce MDM2 expression as a consequence of p53 activation, whereas low concentrations of SP-141 (≤1 µM) and longer incubation times (≥20 h) appear to promote MDM2 degradation in vitro. To investigate this, MCF-7 and HepG2 cells were incubated with or without 100 µM SP-141 for 15–120 min, and uptake was measured as a percentage input dose for each time point. Hep3B, a p53 null cell line, was used as a negative control. […]
# (§4) For these studies, MCF-7 (WT-p53), HepG2 (WT-p53), and Hep3B (p53 null) cells were plated in 24-well plates (20,000/well) and incubated with [^18F]1 (~18.5 kBq in 0.5 mL) with or without 100 µM SP-141 for 15–120 min under standard cell culture conditions. […] The radioactivity in supernatants, wash fractions, and cell lysates was counted for each well using the gamma counter (Wallac Wizard). Cell uptake was calculated as the percentage of the input dose for the two treatment conditions (with/without 100 µM SP-141).
# MCF-7 xenograft = test system: MCF-7 xenograft; design: method as in PMID 25271708, PMID 31832522, PMID 29354330; conditions: 40 mg/kg i.p., 5 days a week, cited from earlier work
# Hep3B cells = assay: [^18F]1 uptake with or without co-incubated 100 µM SP-141, Hep3B; format: cell-based, human; conditions: Hep3B (p53 null) cells, 100 µM SP-141 co-incubation, 15-120 min
# Method: as §3, §4
# HepG2 xenograft = test system: HepG2 xenograft; design: method as in PMID 25271708, PMID 31832522, PMID 29354330; conditions: 40 mg/kg i.p., 5 days a week, cited from earlier work
# HepG2 cells [5] = test system: HepG2 cells; design: method as in PMID 25271708, PMID 31832522; conditions: 0.5–1.0 µM for 24 h; cited from earlier work
# HepG2 cells [6] = assay: [^18F]1 uptake with or without co-incubated 100 µM SP-141, HepG2; format: cell-based, human; conditions: 100 µM SP-141 co-incubation, 15 min
# Method: as §3, §4
# MDM2 protein = biological target: MDM2 protein; design: method as in PMID 25271708; conditions: read-out: Binding affinity (Ki); cited from earlier work
# MDM2 = conditions: read-out: Binding affinity determined by SPR analysis; cited from earlier work
smiles,measurement,setting,value
"COc1ccc(C2=N[C@@H](c3ccc(Cl)cc3)[C@@H](c3ccc(Cl)cc3)N2C(=O)N2CCNC(=O)C2)c(OC(C)C)c1 [Nutlin-3, reference compound]",Change of [^18F]1 uptake after pretreatment,"MCF-7 cells [1]; 1 and 5 µM Nutlin-3, 21 h",significant increases
same,Inhibitory effect of pretreatment on [^18F]1 uptake,MCF-7 cells [1]; Nutlin-3 1-10 µM for 21 h,did not show any inhibitory effects
same,Change of [^18F]1 uptake after pretreatment,"HepG2 cells [2]; 10 µM Nutlin-3, 21 h",significant increases
same,Inhibitory effect of pretreatment on [^18F]1 uptake,HepG2 cells [2]; Nutlin-3 1-10 µM for 21 h,did not show any inhibitory effects
CCOc1cc(C(C)(C)C)ccc1C1=N[C@@](C)(c2ccc(Cl)cc2)[C@@](C)(c2ccc(Cl)cc2)N1C(=O)N1CCN(CCCS(C)(=O)=O)CC1 [RG7112],Increase in median MDM2 gene expression levels,MDM2 gene expression,2.8 fold
"COc1ccc2[nH]c3c(-c4cccc5ccccc45)nccc3c2c1 [SP-141, 6-Methoxy-1-(naphthalen-1-yl)-9H-pyrido[3,4-b]indole]",Cellular MDM2 levels,MCF-7 cells [3],decreases cellular MDM2 levels
same,Increase of [^18F]1 uptake compared to cells incubated with only [^18F]1,MCF-7 cells [4],1.2 fold
same,Decrease of [^18F]1 uptake compared to vehicle-treated cells,MCF-7 cells [1]; 1 µM SP-141 for 21 h,76%
same,Tumor growth,MCF-7 xenograft; after 42 days,inhibited tumor growth significantly
same,MDM2 levels in tumors,MCF-7 xenograft,decreased MDM2 levels in tumors
same,Effect of SP-141 pretreatment on [^18F]1 uptake,HepG2 cells [2]; 10 µM SP-141 for 21 h,no noticeable effects
same,Effect of SP-141 on [^18F]1 uptake,Hep3B cells,no effect
same,Tumor growth,HepG2 xenograft; after 20 days,inhibited tumor growth significantly
same,MDM2 levels in tumors,HepG2 xenograft,decreased MDM2 levels in tumors
same,Cellular MDM2 levels,HepG2 cells [5],decreases cellular MDM2 levels
same,Increase of [^18F]1 uptake compared to cells incubated with only [^18F]1,HepG2 cells [6],1.4 fold
same,Ki,MDM2 protein,28 ± 6 nM
same,Kd,MDM2,43 nM

# Reference: publication PMC8070256, “Feasibility of Developing Radiotracers for MDM2: Synthesis and Preliminary Evaluation of an ^18F-Labeled Analogue of the MDM2 Inhibitor SP-141” (Pharmaceuticals, 2021)
